# Measurements taken from article PMC9054821, “Molecular basis of antibiotic self-resistance in a bee larvae pathogen” (Nature Communications, 2022).
# Target: T1, PamZ (Paenibacillus larvae, UniProt V9W634)
# T1 construct: gene ERIC2_c18030; full length, 275 residues; pET28a(+) N-terminal His6-tag with TEV site, tag cut; E. coli BL21-Gold(DE3); monomer
# Assay: X-ray crystal structure
# Type: binding
# Conditions: 1.34 Å; co-substrate bound to the C-terminal GNAT domain only; crystals at pH 4.6, 293 K
# T1 sequence (V9W634 entry or part of it): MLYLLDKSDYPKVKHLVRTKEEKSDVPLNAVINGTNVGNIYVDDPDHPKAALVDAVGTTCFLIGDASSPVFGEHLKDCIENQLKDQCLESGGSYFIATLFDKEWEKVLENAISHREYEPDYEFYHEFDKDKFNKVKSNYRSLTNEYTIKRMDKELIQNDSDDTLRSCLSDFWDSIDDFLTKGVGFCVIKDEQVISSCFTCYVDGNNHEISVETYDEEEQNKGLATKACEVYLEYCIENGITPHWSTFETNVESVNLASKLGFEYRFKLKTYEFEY
compound,measurement,value
CC(=O)SCCNC(=O)CCNC(=O)[C@H](O)C(C)(C)COP(=O)(O)OP(=O)(O)OC[C@H]1O[C@@H](n2cnc3c(N)ncnc32)[C@H](O)[C@@H]1OP(=O)(O)O [acetyl-CoA],X-ray crystal structure,We solved the crystal structure of PamZ in complex with acetyl-CoA
